Data published in patent publication US20250339445A1, “Modulators of Orphan Nuclear Receptors for Treating Pancreatitis, Glioblastoma, Sarcopenia and Stroke” (Emory University, priority 2020, published 2025).
“Also recorded” adds a separate entry of the source.

Columns and labels:
CD4^+ Th17 cells = assay: Modulation of Th17 populations in human PBMCs (flow cytometry); type: cell-based; settings: 10 μM, 3 day assay
Description: Human peripheral blood mononuclear cells (PBMCs) were isolated from four healthy donors. Four experiments were conducted and analyzed by flow cytometry over 3 day assay. The control group had no drug treatment, a second were treated with 10 μM Compound 1, a third group was stimulated with PHA/IL-2 without treatment, and the fourth group was stimulated with PHA/IL-2 and incubated with 10 μM Compound 1. […] Further, Compound 1 has no effect on Th17 populations in the absence of PHA/IL-2 stimulation.

RORα-regulated genes = assay: Modulation of RORα-regulated genes in healthy C57BL/6 mice, single injection; type: in vivo
Description: Healthy C57BL/6 mice were injected i.p. once with 7.5 mg/kg Compound 1 or saline control. Mice were sacrificed at 1, 2, and 7 day time points post-injection. miR-122 and Gpase 6 mRNA levels were determined by qRT-PCR for each time point. MicroRNA levels were normalized to RNU6; plasma miR-122 was normalized to spiked in C. elegans miR-39; and mRNA levels were normalized to HPRT.
Compound 1 and AntagomiR injections to mice. C57BL/6 male mice, 7-8 weeks old, or Sgp130FC, 9-month-old male mice, were injected i.p. with 7.5 mg/kg Compound 1 dissolved in saline and 3% DMSO. Saline was injected as control. Mice were hydrodynamic tail vain injected with antagomiR-122 or antagomiR-control (negative control) (5 μg/mouse in 1.5 ml saline). Mice were sacrificed according to the legend of the figure describing the experimental results and the livers, white adipose and skeletal muscle tissues were frozen in liquid nitrogen or in OCT embedded frozen blocks, for further RNA and histologic analysis. AntagomiRs were obtained from Sigma Aldrich, see Table 3.

[1] = system: atherogenic diet C57BL/6 mice; assay: Atherogenic (fibrotic) diet mouse model; type: in vivo
Description: Male C57BL/6J mice, 7 to 8 weeks old, were housed randomly in standard cages and were fed a HFD, or atherogenic diet (consisting 1% Chol and 0.5% cholic acid, see also Table 6). All mice had free access to water during the experimental period. During the feeding period body weight was monitored every 3 days. In the HFD experiment, after 4 or 6 weeks, the resultant obese mice were treated with antagomiR-122 (5 μg/mouse once a week for 3 weeks), or i.p. injected with Compound 1 (RORα agonist, 7.5 mg/kg twice a week for 3 weeks; or 15 mg/kg 3 times a week for 3 weeks). The obese control (HFD) group was administered only saline with DMSO and antagomiR-control. After 3 weeks of treatment mice were sacrificed and livers were taken for RNA-seq analysis. Livers, white adipose, and skeletal muscle tissues were frozen in liquid nitrogen or in optimum cutting temperature embedded frozen blocks, for further RNA and histologic analysis. In the atherogenic diet experiment mice were treated with 15 mg/kg Compound 1 after 3 weeks with the diet. After 3.5 weeks of treatment, mice were sacrificed, and the livers were frozen in liquid nitrogen or in optimum cutting temperature embedded frozen blocks. Plasma was collected from atherogenic diet-fed mice and saved in −20° C. for ALT and AST analysis using the Reflotron® Analyzer and test-strips (Roche).
Livers and adipose samples were placed in 4% buffered formaldehyde for 24 hours, followed by 80% ethanol and then embedded in paraffin blocks. Liver and adipose tissues were cut into […], deparaffinized with xylene and hydrated through graded ethanol. For the H&E staining, tissue sections were stained with hematoxylin (Emmonya Biotech Ltd.) and eosin (Leica, Surgipath). Liver macrophages were stained using rat anti-mouse F4/80 antigen (Serotec), followed by anti-Rat HRP (Histofine) and developed with a DAB kit (Zymed). Liver sections were stained for Masson Trichrome (Sigma). Liver CD3+ T cells were stained using Rat anti human-CD3-antibody (Bio-Rad), followed by anti-Rat HRP (Histofine) and developed with AEC (Invitrogen). α-SMA positive cells were stained using mouse anti-Human smooth Muscle Actin antibody (Dako), followed by anti-mouse HRP (Dako) and developed with DAB. The percentage area stained positively per high power field was calculated by ImageJ Software in 5-10 random fields.
Experimental design: C57BL/6 mice fed for 3 weeks with atherogenic diet (to induce fibrosis) and injected with 15 mg/kg Compound 1 (or saline+DMSO) 3 times a week for 3.5 week (n=8).
After 3 weeks of treatment mice were sacrificed and livers were taken for RNA-seq analysis. Livers, gonadal white adipose, and skeletal muscle tissues were frozen in liquid nitrogen or in optimum cutting temperature embedded frozen blocks, for further RNA and histologic analysis. In the atherogenic diet experiment mice were treated with 15 mg/kg Compound 1 after 3 weeks with the diet. After 3.5 weeks of treatment, mice were sacrificed, and the livers were frozen in liquid nitrogen or in optimum cutting temperature embedded frozen blocks. Plasma was collected from atherogenic diet-fed mice and stored at −20° C. for ALT and AST analysis using the Reflotron® Analyzer and test-strips (Roche).

[2] = atherogenic diet, 15 mg/kg 3 times a week for 3.5 weeks
[3] = atherogenic diet, 3 times weekly for 3.5 weeks
[4] = liver, atherogenic diet, 15 mg/kg 3 times a week for 3.5 weeks

With O=C1Nc2cc(C(=O)N3CCC(Cc4ccccc4)CC3)ccc2Nc2ccccc21 [Compound 1] the “Th17 total population in the presence of PHA/IL-2 stimulation” value (CD4^+ Th17 cells; relative to vehicle-control) was “decreases the CD4^+ Th17 population”, the “Total viability of CD4^+ T cells” value (CD4^+ Th17 cells; with or without PHA/IL-2) was “no effect” and the “Gpase6 (G6Pase) mRNA, RORα target gene” value (RORα-regulated genes; 7.5 mg/kg i.p. once, liver, up to 7 days) was “significantly up-regulated; also recorded: increase”. For the same molecule, the “miR-18 and miR-126 levels (controls)” value (RORα-regulated genes; 7.5 mg/kg i.p. once, over 7 days) was “not affected”, the “miR-122 levels in plasma and liver” value (RORα-regulated genes; 7.5 mg/kg i.p. once, up to 7 days post-injection) was “increased” and the “Hepatic MIR122 precursors (pri-MIR122 and pre-MIR122)” value (RORα-regulated genes; single administration) was “increase”. For the same molecule, the “Mature MIR122 levels in WAT, muscle and heart tissues” value (RORα-regulated genes; single administration) was “increased significantly”, the “Three MIR122 target genes in heart tissue” value (RORα-regulated genes; single administration) was “significantly down-regulated” and the “AldoA, MIR122 target” value (RORα-regulated genes; single administration, liver) was “decrease”. For the same molecule, the “Liver vasculature by CD34 staining” value ([1]; atherogenic diet) was “no effect”, the “NK cells in the livers” value ([1]; atherogenic diet) was “significant reduction in NK cells” and the “Biomarkers of inflammation (Tgfb2 and TgfbR2) and fibrosis (Acta1, Col1A1 and Col3A1), liver mRNA” value [1, 2] was “reducing”. For the same molecule, the “Mature miR-122 in tissue (liver) and plasma” value [1, 2] was “increased”, the “ALT and AST plasma levels (liver enzymes)” value ([1]; atherogenic diet, 15 mg/kg 3 times a week for 3.5 weeks, 15 mg/kg) was “significantly improved; also recorded: reducing significantly” and the “Liver fibrosis (Masson Trichrome and αSMA staining)” value [1, 3] was “significant reduction in liver fibrosis”. For the same molecule, the “Liver inflammation (H&E, CD3 and F4/80 staining)” value [1, 3] was “significantly improved liver inflammation; also recorded: improved liver inflammation significantly”, the “Immune infiltrate by H&E staining” value [1, 4] was “decreased immune infiltrate” and the “Myeloid infiltrate by F4/80 staining” value [1, 4] was “decreased levels of myeloid infiltrate”. The “T-cell density by CD3 staining” value [1, 4] was “decreased T-cell density”, the “Reduction of fibrotic area, Masson Trichrome (M.T)” value ([1]; liver, versus untreated cohort) was 5 fold and the “Reduction of fibrotic area, α-SMA” value ([1]; liver, versus untreated cohort) was 7 fold.
